Reference: PMC10994617, “In silico study, synthesis, and antineoplastic evaluation of thiazole-based sulfonamide derivatives and their silver complexes with expected carbonic anhydrase inhibitory activity” (Journal of Medicine and Life, 2023)
Read-outs that look alike come from different tables or passages of the source.

Tests used:
MCF-7 = experiment: MTT cytotoxicity assay, MCF-7 breast cancer cell line; type: cell-based, human; details: MCF-7, MTT
From the text: (§1) To evaluate the antitumor activity of the newly synthesized sulfonamide carbonic anhydrase inhibitors (compounds M3, M4, and M5), we employed cell line assays using 3-(4,5-dimethylthiazol-2-yl)-2,5-diphenyltetrazolium (MTT). Two cell types were utilized in this study: MCF-7, a breast cancer cell line, to assess the effects of the compounds on cancer cells, and MCF10A, a normal breast epithelial cell line, to evaluate the effects on non-cancerous cells. These cell lines were procured from the Iranian National Cell Bank at the Pasteur Institute. MCF-7 cells were cultured in RPMI-1640 medium, while MCF10A cells were cultured in DMEM: F12 medium. Both media were supplemented with 10% fetal bovine serum (FBS), followed by the addition of antibiotics (100 µg/ml streptomycin and 100 units/ml penicillin). The cells were maintained in a humidified atmosphere at 37°C with 5% carbon dioxide. For cell passaging, a trypsin/EDTA solution (Gibco) and phosphate-buffered saline (PBS) were utilized. Cell viability was assessed using MTT from Sigma-Aldrich. Each type of cell (MCF-7 and MCF10A) was cultured separately in 96-well plates (1.4 × 10^4 cells per well with 200 µl of fresh medium) after a full day had passed (temperature of 37°C in a 5% CO2 environment). The supernatant was removed, and MTT solution at a concentration of 200 µl was added to each well and then incubated for four hours at a temperature of 37°C. After the end of the incubation period and to dissolve the formazan crystals, 100 µl of dimethyl sulfoxide (DMSO) was added, and the plate was left in a shaker at a temperature of 37°C until it was confirmed that all the crystals had completely dissolved. An ELISA reader (Model Wave xs2, BioTek) was used to measure cell vitality by absorption at 570 nm and calculate the IC50 values.

MCF10A = experiment: MTT cytotoxicity assay, MCF10A normal breast epithelial cell line; type: cell-based; details: MCF10A normal cells, read-out: MCF10A IC50 (µM) ± SD
From the text: as §1

[1] = Homo sapiens, MCF7, read-out: MCF-7 IC50 (µM) ± SD

## NS(=O)(=O)c1ccc(Nc2csc(N=Cc3ccc(O)cc3)n2)cc1 (stereo in doubt) [Compound M3, (Z)-4-((2-((4-hydroxybenzylidene)amino)thiazol-4-yl)amino) benzene sulfonamide]
MCF-7; [1]
  IC50: 87.7 ± 2.16 µM
MCF10A; Homo sapiens, MCF-10A
  IC50: 135 ± 4.19 µM

## N.N.[Cl][Pt][Cl] [Cisplatin, reference compound]
MCF-7; read-out: MCF-7 IC50 (µM) ± SD
  IC50: 15.1 ± 2.25 µM
MCF10A
  IC50: 13.6 ± 3.45 µM

## CN(C)c1ccc(/C=N/c2nc(Nc3ccc(S(N)(=O)=O)cc3)cs2)cc1 [Compound M4]
MCF-7; Homo sapiens, MCF7, read-out: IC50 against MCF-7 cells
  IC50: 77.4 µg/mL
MCF-7; [1]
  IC50: 77.4 ± 3.31 µM
MCF10A; Homo sapiens, MCF-10A
  IC50: 52.5 ± 3.31 µM
